In patent US5798097A, “Immunogobulin conjugates” (Pharmacia & Upjohn S.p.A., priority 1987, dated 1998):

Columns and labels:
[1] = test system: tumour cell lines tested; test: 24 hour assay, tumour cell lines tested (Example 2); format: cell-based
Method: […] Cells were then centrifuged (400 g×5 min), resuspended in growth medium and 100 ul aliquots were seeded into a microtitre plate using duplicate wells for each sample before an incubation period of 16-24 hours. After the incubation period in both these assays, 50 ul of growth medium containing 1 uCi of [^3 H]-thymidine (specific activity=5 Ci/mmol; Amersham) was added and the plates incubated for 2-4 hours. Cells were then harvested and dried, and individual samples were separated and counted on a beta scintillation counter.

[2] = test system: murine thymoma ITT(1) 75NS E3 (Ly-2^+); test: 30 minute inhibition assay ([^3 H]-thymidine incorporation), E3; format: cell-based; conditions: 0.5 h
Source text: (§1) The cell lines examined in this study included the (Ly-2^+) murine thymoma ITT(1) 75NS E3 variant (E3) (Smyth et al, J. Natl Cancer Inst. 1986 76 503-510), the (Ly-2^-, TFR^-) lymphoma EL4 (Horowitz et al, Science 1968 160 533-535), the (TFR^+) human cell line CEM (Foley et al Cancer 1965 18 522-529) and the (250-30.6^+) human cell line COLO 205. Cells were maintained in vitro in Dulbecco's Modified Eagle's medium (DME) or RPMI 1640 medium (Flow Laboratories, Sydney, Australia), supplemented with 10% heat inactivated newborn calf serum (Flow), 2 mM glutamine (Commonwealth Serum Laboratories, Sydney, Australia); 100 ug/ml streptomycin (Glaxo, Melbourne, Australia) and 100 I.U./ml penicillin (Commonwealth Serum Laboratories). The E3 tumour was maintained in vivo by serial passage into (C57BL/6×BALB/c)F1 mice (CBF1 mice). Cells from the ascites fluid were washed and centrifuged (400 g×5 min) twice in phosphate buffered saline (PBS), pH7.3, resuspended in PBS and injected subcutaneously (s.c.) into the abdominal wall of mice; these developed into palpable tumours prior to treatment. Mice were subjected to a series of intraveneous (i.v.) or intratumour (i.t.) treatments and the subsequent size of tumours was measured daily with a caliper square, measuring along the perpendicular axes of the tumours. Data was recorded as mean tumour size (product of two diameters ± standard error).
(§2) (b) 30 minute inhibition assay: 200 ul of cells (2-5×10^6 /ml) were collected in sterile Eppendorf tubes, resuspended in sterile drug or conjugate and mixed for 30 min at 37° C. Cells were then centrifuged (400 g×5 min), resuspended in growth medium and 100 ul aliquots were seeded into a microtitre plate using duplicate wells for each sample before an incubation period of 16-24 hours. After the incubation period in both these assays, 50 ul of growth medium containing 1 uCi of [^3 H]-thymidine (specific activity=5 Ci/mmol; Amersham) was added and the plates incubated for 2-4 hours. Cells were then harvested and dried, and individual samples were separated and counted on a beta scintillation counter.

[3] = test system: solid E3 tumour; test: Intratumour treatment of E3 tumours in CBF1 mice; format: in vivo; conditions: days 5 and 6, total Ida=30 ug
Method: The E3 tumour was maintained in vivo by serial passage into (C57BL/6×BALB/c)F1 mice (CBF1 mice). Cells from the ascites fluid were washed and centrifuged (400 g×5 min) twice in phosphate buffered saline (PBS), pH7.3, resuspended in PBS and injected subcutaneously (s.c.) into the abdominal wall of mice; these developed into palpable tumours prior to treatment. Mice were subjected to a series of intraveneous (i.v.) or intratumour (i.t.) treatments and the subsequent size of tumours was measured daily with a caliper square, measuring along the perpendicular axes of the tumours. Data was recorded as mean tumour size (product of two diameters ± standard error).

[4] = test system: (L3T4^+) lymphoma EL4; test: 30 minute inhibition assay ([^3 H]-thymidine incorporation), EL4; format: cell-based; conditions: 0.5 h; Table 3; EL4, 30 min; read-out: Mean I.D.50 values (Ida (M))
Method: as §2, with “counter. Incorporation of [^3 H]-thymidine was expressed as a percentage inhibition in incorporation of controls.” for “counter.”
(§3) The cell lines examined in this study included the (Ly-2^+) murine thymoma ITT(1)75NS E3 variant (E3), the (L3T4^+) lymphoma EL4 (Horowitz et al, Science 1968 160 533-535), the human colon carcinoma Colo 205 (Semple et al, Cancer Res. 1978 38 1345-1355) and the (Ly-2^-, L3T4^-) human T cell leukemia CEM (Foley et al, Cancer 1965 18 522-529). Cells were maintained in vitro as described in Example 1. […] Mice were then subjected to a series of i.v. treatments and the size of the tumours was measured daily with a caliper square, measuring along the perpendicular axes of the tumours. […]

[5] = test system: COLO 205; test: 24 hour inhibition assay ([^3 H]-thymidine incorporation), COLO 205; format: cell-based; conditions: Homo sapiens
Method: The cell lines examined in this study included the (Ly-2^+) murine thymoma ITT(1) 75NS E3 variant (E3) (Smyth et al, J. Natl Cancer Inst. 1986 76 503-510), the (Ly-2^-, TFR^-) lymphoma EL4 (Horowitz et al, Science 1968 160 533-535), the (TFR^+) human cell line CEM (Foley et al Cancer 1965 18 522-529) and the (250-30.6^+) human cell line COLO 205. […] Mice were subjected to a series of intraveneous (i.v.) or intratumour (i.t.) treatments and the subsequent size of tumours was measured daily with a caliper square, measuring along the perpendicular axes of the tumours. Data was recorded as mean tumour size (product of two diameters ± standard error). […]
(b) 30 minute inhibition assay: 200 ul of cells (2-5×10^6 /ml) were collected in sterile Eppendorf tubes, resuspended in sterile drug or conjugate and mixed for 30 min at 37° C. […] Cells were then harvested and dried, and individual samples were separated and counted on a beta scintillation counter. Incorporation of [^3 H]-thymidine was expressed as a percentage inhibition in incorporation of controls. […]

[6] = Acute toxicity, single i.v. injection in CBA mice; format: in vivo; conditions: mouse, in vivo, iv; Table 2; Ida (mg/kg)
Method: (§4) Groups of 10-20 CBA mice were given a single i.v. injection of various doses of Ida or Ida-anti-Ly-2.1 and the survival of mice was recorded against the dose of drug delivered in mg/kg. The organs of these mice were removed and weighed prior to formalin fixation and staining by haematoxylin and eosin.
(§5) For acute toxicity experiments groups of 10 CBA (Ly2.1^+) mice were given a single injection of various doses of either Ida, Ida-anti-Ly-2.1 or Ida-anti-TFR. […] Ida-MoAb conjugates were not tested to an LD50 dose.

[7] = test system: CBA mice; test: Acute toxicity, single i.v. injection in CBA mice; format: in vivo
Method: as §4, §5

[8] = test system: human cell line CEM; test: cells; format: cell-based; conditions: 0.5 h, Table 3, 30 min, read-out: Mean I.D.50 values (Ida (M))
Method: (§6) The cell lines examined in this study included the (Ly-2^+) murine thymoma ITT(1) 75NS E3 variant (E3) (Smyth et al, J. Natl Cancer Inst. 1986 76 503-510), the (Ly-2^-, TFR^-) lymphoma EL4 (Horowitz et al, Science 1968 160 533-535), the (TFR^+) human cell line CEM (Foley et al Cancer 1965 18 522-529) and the (250-30.6^+) human cell line COLO 205. […] Mice were subjected to a series of intraveneous (i.v.) or intratumour (i.t.) treatments and the subsequent size of tumours was measured daily with a caliper square, measuring along the perpendicular axes of the tumours. Data was recorded as mean tumour size (product of two diameters ± standard error).
(§7) (b) 30 minute inhibition assay: 200 ul of cells (2-5×10^6 /ml) were collected in sterile Eppendorf tubes, resuspended in sterile drug or conjugate and mixed for 30 min at 37° C. […] Cells were then harvested and dried, and individual samples were separated and counted on a beta scintillation counter.
(§8) Data was recorded as mean tumour size (product of two diameters ± standard error).

[9] = test system: (L3T4^+) lymphoma EL4; test: 24 hour inhibition assay ([^3 H]-thymidine incorporation), EL4; format: cell-based; conditions: Table 3; EL4, 24 hr; read-out: Mean I.D.50 values (Ida (M))
Method: (a) 24 hour inhibition assay: 100 ul of cells (2-5×10^6 /ml) were added to a flat-bottomed microtitre plate and incubated for 1 hour at 37° C. Free Idarubicin (Ida) (dissolved in PBS) and Ida-MoAb conjugates were filtered aseptically and dilutions were performed in sterile PBS; 50 ul of free Ida or conjugate were added to the cells using duplicate wells for each sample; control wells received 50 ul of PBS and the cells were cultured at 37° C., 7% CO2 for 24 hours.
(b) 30 minute inhibition assay: 200 ul of cells (2-5×10^6 /ml) were collected in sterile Eppendorf tubes, resuspended in sterile drug or conjugate and mixed for 30 min at 37° C. […] Cells were then harvested and dried, and individual samples were separated and counted on a beta scintillation counter. Incorporation of [^3 H]-thymidine was expressed as a percentage inhibition in incorporation of controls.
as §3, with “522-529).” for “522-529). Cells were maintained in vitro as described in Example 1.”

[10] = test system: human cell line CEM; test: 24 hour inhibition assay ([^3 H]-thymidine incorporation), CEM; format: cell-based
Source text: as §1, with “The E3 tumour was maintained in vivo by serial passage into (C57BL/6×BALB/c)F1 mice (CBF1 mice). Cells from the ascites fluid were washed and centrifuged (400 g×5 min) twice in phosphate buffered saline (PBS), pH7.3, resuspended in PBS and injected subcutaneously (s.c.) into the abdominal wall of mice; these developed into palpable tumours prior to treatment.” left out
as §7

[11] = test system: E3 thymoma; test: i.v. treatment of s.c. E3 thymoma in CBF1 mice (2.0×10^6 cells); format: in vivo; conditions: 20 ug Ida, days 4 and 5
Source text: as §1, with “error). […]” for “error).”

[12] = test system: E3 and CEM cell lines
Method: as §2

[13] = test system: murine thymoma ITT(1) 75NS E3 (Ly-2^+); test: 24 hour inhibition assay ([^3 H]-thymidine incorporation), E3; format: cell-based; conditions: Mus musculus
Source text: as §1, with “The E3 tumour was maintained in vivo by serial passage into (C57BL/6×BALB/c)F1 mice (CBF1 mice). Cells from the ascites fluid were washed and centrifuged (400 g×5 min) twice in phosphate buffered saline (PBS), pH7.3, resuspended in PBS and injected subcutaneously (s.c.) into the abdominal wall of mice; these developed into palpable tumours prior to treatment.” left out
as §7

[14] = test system: CBA mice (organs); test: Histopathology after single i.v. dose; format: in vivo; conditions: 1.0 mg/kg i.v.
Method: as §4

[15] = test system: COLO 205 xenografts; test: i.v. treatment of COLO 205 xenografts in nude mice; format: in vivo, nude (nu/nu) mice; human tumour; conditions: total 275 ug Ida
Source text: Injection of 2×10^6 cells subcutaneously into the abdominal wall yielded a palpable lump within 4 days (approx. 0.1 cm^2).

[16] = test system: COLO 205; test: 30 minute inhibition assay ([^3 H]-thymidine incorporation), COLO 205; format: cell-based; conditions: Homo sapiens, 0.5 h
Method: as §6, §7, §8

Question: Which “activity of free Ida relative to Ida-MoAb conjugates” value [1] does the source give for CC(=O)[C@]1(O)Cc2c(O)c3c(c(O)c2[C@@H](O[C@H]2C[C@H](N)[C@H](O)[C@H](C)O2)C1)C(=O)c1ccccc1C3=O [Ida, 4-demethoxy-daunorubicin] here?
Answer: Its value is 4-10 times.

Question: What about the IC50 ([2]; E3, 30 min, compared with COLO 205, Example 1, read-out: dose response to free drug (I.D.50)) of the same molecule?
Answer: The IC50 was 9.8e-07 M.

Question: And the IC50 ([2]; Mus musculus, E3, incubated 30 minutes, Example 1, read-out: I.D.50 (the source's name))?
Answer: Its IC50 is 5.2e-07 M.

Question: What about the IC50 ([2]; Mus musculus, Table 3, E3, 30 min, read-out: Mean I.D.50 values (Ida (M))) of the same molecule?
Answer: The IC50 was 1.8e-07 M.

Question: What about the “anti-tumour activity / effect on tumour growth” value [3] of the same molecule?
Answer: The value was “not affecting tumour growth”.

Question: What about the IC50 [4] of the same molecule?
Answer: The IC50 was 1.6e-07 M.

Question: What about the IC50 ([5]; Table 3, Colo 205, 24 hr, read-out: Mean I.D.50 values (Ida (M))) of the same molecule?
Answer: Its IC50 is 8e-08 M.

Question: And the IC50 ([5]; target cell line COLO 205, Example 1, read-out: I.D.50 (the source's name))?
Answer: Its IC50 is 6e-08 M.

Question: What about the LD50 [6] of the same molecule?
Answer: Its LD50 is 3 mg/kg.

Question: What about the L.D.10 ([7]; Table 2, Ida (mg/kg)) of the same molecule?
Answer: The L.D.10 was 0.75 mg/kg.

Question: And the LD10 ([7]; mg/kg of Ida, single i.v.)?
Answer: Its LD10 is 0.75 mg/kg.

Question: And the “initial weight loss (of original weight)” value ([7]; single i.v. injection, all mice)?
Answer: The value was “up to 25%”.

Question: And the IC50 [8]?
Answer: Its IC50 is 2.2e-07 M.

Question: What about the IC50 [9] of the same molecule?
Answer: Its IC50 is 6.6e-08 M.

Question: What about the IC50 ([10]; Table 1, 24 hour assay, read-out: Mean I.D.50 (50% inhibition in [^3 H]-thymidine incorporation of controls)) of the same molecule?
Answer: The IC50 was 2.2e-07 M.

Question: And the IC50 ([10]; Table 3, 24 hr, read-out: Mean I.D.50 values (Ida (M)))?
Answer: Its IC50 is 9e-08 M.

Question: What about the tumour reduction [11] of the same molecule?
Answer: Its tumour reduction is “up to 50%”.

Question: What about the mice died ([11]; of 10 mice) of the same molecule?
Answer: The mice died was 3.

Question: And the “cytotoxicity of free Ida compared with conjugates” value [12]?
Answer: Its value is “more cytotoxic to both E3 and CEM than Ida-anti-Ly-2.1 and Ida-anti-TFR respectively”.

Question: And the IC50 ([13]; Table 1, E3, 24 hour assay, read-out: Mean I.D.50 (50% inhibition in [^3 H]-thymidine incorporation of controls))?
Answer: Its IC50 is 1.2e-07 M.

Question: And the IC50 ([13]; Table 3, E3, 24 hr, read-out: Mean I.D.50 values (Ida (M)))?
Answer: The IC50 was 7.8e-08 M.

Question: What about the spleen histopathology ([14]; 15 days) of the same molecule?
Answer: Its spleen histopathology is “atrophy of the white pulp in the spleen”.

Question: And the cardiac histopathology ([14]; data not shown)?
Answer: The cardiac histopathology was “some hypertrophy of cardiac muscle fibres”.

Question: And the mice survived [15]?
Answer: Its mice survived is 2 out of 10.

Question: What about the IC50 ([16]; COLO 205, 30 min, Example 1, read-out: dose response to free drug (I.D.50)) of the same molecule?
Answer: The IC50 was 9.2e-07 M.

Question: And the IC50 ([16]; Table 3, Colo 205, 30 min, read-out: Mean I.D.50 values (Ida (M)))?
Answer: Its IC50 is 1.2e-07 M.
